From patent US20200331950A1, “SGLTS INHIBITOR AND APPLICATION THEREOF” (SHANDONG DANHONG PHARMACEUTICAL CO., LTD., priority 2018, published 2020)

Legend:
Human-SGLT1 = biological target: T1, Human-SGLT1 (Homo sapiens, UniProt P13866); assay: SGLT1 glucose transport test ([14C]-labeled methyl a-D-glucopyranoside uptake); assay type: cell-based; settings: cells stably expressing Human-SGLT1; 37° C., 2 hours
T1 sequence (P13866 1-664): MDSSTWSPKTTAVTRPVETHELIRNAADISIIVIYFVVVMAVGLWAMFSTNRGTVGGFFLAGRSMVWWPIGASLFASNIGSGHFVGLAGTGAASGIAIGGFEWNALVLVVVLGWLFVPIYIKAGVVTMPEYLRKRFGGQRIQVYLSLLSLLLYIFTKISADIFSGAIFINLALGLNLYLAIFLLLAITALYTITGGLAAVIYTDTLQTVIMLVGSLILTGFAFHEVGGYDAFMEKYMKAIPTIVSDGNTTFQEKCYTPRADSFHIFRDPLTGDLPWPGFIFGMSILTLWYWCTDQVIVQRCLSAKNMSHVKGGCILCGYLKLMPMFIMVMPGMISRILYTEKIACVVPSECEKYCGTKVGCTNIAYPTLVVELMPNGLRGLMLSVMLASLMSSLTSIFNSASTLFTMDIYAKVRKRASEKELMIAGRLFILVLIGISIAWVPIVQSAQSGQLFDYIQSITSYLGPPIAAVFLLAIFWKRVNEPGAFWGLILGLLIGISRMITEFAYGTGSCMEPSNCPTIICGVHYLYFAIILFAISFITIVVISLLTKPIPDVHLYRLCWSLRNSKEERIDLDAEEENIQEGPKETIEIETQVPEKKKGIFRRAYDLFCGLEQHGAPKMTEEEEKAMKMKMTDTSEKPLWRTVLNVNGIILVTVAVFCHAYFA
From the text: Biological Activity Experiment 1: SGLT1 Glucose Transport Test.
(§1) 1. Purpose of the Experiment:
The effect of the compound on the glucose transport activity of SGLT1 transporter was detected by measuring the amount of [′C]-labeled glucose entering cells with high expression of Human-SGLT1.
The cells stably expressing Human-SGLT1 were constructed by Wuxi AppTec(Shanghai) Co., Ltd. SGLT1 cells were laid in Cytostar-T (PerkinElmer) 96-well cell culture plate and cultured overnight in 5% CO2 environment at 37° C.
2.2. SGLT1 Glucose Transport Test.
(§2) 1) Experimental buffer, including: 10 mM 4-hydroxyethylpiperazineethanesulfonic acid (HEPES), 1.2 mM magnesium chloride (MgCl2), 4.7 mM potassium chloride (KCl), 2.2 mM calcium chloride (CaCl2) and 120 mM sodium chloride (NaCl).
2) Compounds were serially diluted in 100% dimethyl sulfoxide (DMSO) starting at 1 mM and make a 5-folds, 8 points serials compound dilutions.
3) 3 μM [′^4C]-labeled methyl a-D-glucopyranoside was prepared with the experimental buffer.
4) The cells were treated with 49 uL of the experimental buffer, 1 μL of the gradient diluted compound and 50 μL of the 3 μM [^14C]-labeled methyl a-D-lucopyranosid solution at 37° C. for 2 hours.
5) The data were read with an isotope detector Micro beta Reader.
6) The IC50 value of the tested compound was obtained by the calculation formula: log(inhibitor) vs. response—Variable slope, using GraphPad Prism 5.0 software.

Human-SGLT2 = biological target: T2, Human-SGLT2 (Homo sapiens, UniProt P31639); assay: SGLT2 glucose transport test ([14C]-labeled methyl a-D-glucopyranoside uptake); assay type: cell-based; settings: cells stably expressing Human-SGLT2; 37° C., 2 hours
T2 sequence (P31639 1-672): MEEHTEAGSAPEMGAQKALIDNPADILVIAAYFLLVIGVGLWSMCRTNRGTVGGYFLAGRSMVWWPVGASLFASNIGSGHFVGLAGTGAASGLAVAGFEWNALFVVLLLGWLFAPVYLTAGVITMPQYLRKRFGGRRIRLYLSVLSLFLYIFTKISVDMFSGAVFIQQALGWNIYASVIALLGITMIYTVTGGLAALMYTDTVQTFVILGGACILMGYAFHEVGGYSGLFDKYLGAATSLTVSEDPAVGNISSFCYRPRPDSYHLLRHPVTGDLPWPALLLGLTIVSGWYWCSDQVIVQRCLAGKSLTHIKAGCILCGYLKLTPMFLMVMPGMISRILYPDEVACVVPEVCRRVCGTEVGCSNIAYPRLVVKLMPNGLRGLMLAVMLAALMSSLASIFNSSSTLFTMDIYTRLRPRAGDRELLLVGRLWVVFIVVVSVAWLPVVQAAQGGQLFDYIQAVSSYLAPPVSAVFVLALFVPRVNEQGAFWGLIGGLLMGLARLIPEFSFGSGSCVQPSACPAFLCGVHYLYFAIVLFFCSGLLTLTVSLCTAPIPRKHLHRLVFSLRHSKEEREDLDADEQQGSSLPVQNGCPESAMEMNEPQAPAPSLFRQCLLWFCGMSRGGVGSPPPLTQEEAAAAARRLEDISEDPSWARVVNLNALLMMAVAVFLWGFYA
Procedure: Biological Activity Experiment 2: SGLT2 Glucose Transport Test.
as §1
The effect of the compound on the glucose transport activity of SGLT2 transporter was detected by measuring the amount of [^14C]-labeled glucose entering cells with high expression of Human-SGLT2.
The cells stably expressing Human-SGLT2 were constructed by Wuxi AppTec(Shanghai) Co., Ltd. SGLT2 cells were laid in 96-well cell culture plate (Greiner) and cultured overnight in 5% CO2 environment at 37° C.
2.2. SGLT2 Glucose Transport Test.
as §2
2) Stop buffer, including: 10 mM 4-hydroxyethylpiperazineethanesulfonic acid (HEPES), 1.2 mM magnesium chloride (MgCl2), 4.7 mM potassium chloride (KCl), 2.2 mM calcium chloride (CaCl2), 120 mM sodium chloride (NaCl) and 1 μM LX4211.
3) Compounds were serially diluted in 100% dimethyl sulfoxide (DMSO) starting at 10 uM and make a 5-folds, 8 points serials compound dilutions.
4) 6 μM [^14C]-labeled methyl a-D-lucopyranosid was prepared with the experimental buffer.
5) The cells were treated with 49 uL of the experimental buffer, 1 μL of the gradient diluted compound and 50 μL of the 6 μM [^14C]-labeled methyl a-D-lucopyranosid solution at 37° C. for 2 hours.
6) The solution was sucked out from holes, and the cells were rinsed with the stop buffer for 3 times.
7) The cells were lysed with 50 ul of 10% sodium hydroxide solution, the cell lysate was sucked into a scintillation tube, into which 2 mL scintillation solution was then added.
8) The data were read with an isotope detector Tricarb.
9) The IC50 value of the tested compound was obtained by the calculation formula: log(inhibitor) vs. response—Variable slope, using GraphPad Prism 5.0 software.

SMILES	IC50 (Human-SGLT1)	IC50 (Human-SGLT2)
CS[C@H]1OC(c2ccc(Cl)c(Cc3ccc(C4=CCC(F)(F)CC4)cc3)c2)[C@H](O)[C@@H](O)[C@@H]1O (stereo partly drawn) [WXD001]	210 nM	3.98 nM
CS[C@H]1O[C@@H](c2ccc(C)c(Cc3ccc(C4=CCC(F)(F)CC4)cc3)c2)[C@H](O)[C@@H](O)[C@@H]1O [WXD003]	49.5 nM	2.04 nM
CCc1ccc([C@@H]2O[C@H](SC)[C@@H](O)[C@H](O)[C@H]2O)cc1Cc1ccc(C2=CCC(F)(F)CC2)cc1 [WXD010]	14.8 nM	2.49 nM
